Measured values reported in patent publication US4057530A, “2-Phenyl-indole derivatives and process for preparing the same” (priority 1974, dated 1977).

Columns and labels:
[1] = Acute toxicity by oral route in mice (LD50); type: in vivo; details: mouse, in vivo, gummy suspension
Description: (§1) The study of the acute toxicity of the stabilizers listed below was carried out by determining the dose of substance which provoked the death of 50% of the treated animals (LD50). A gummy suspension of the substance under study was administered by oral route to groups of at least ten mice and the following results were observed: […]

mice = assay: Acute toxicity by oral route in mice (LD50); type: in vivo; details: LD50 study
Description: as §1

[2] = Thermostability of the stabilizers: thermogravimetric analysis; type: physicochemical
Description: The thermostability of Stabilizer 8 and that of 2-phenyl-indole were studied by differential thermoanalysis and by thermogravimetric analysis.
This analysis necessitated two series of trials carried out under air and under inert gas (Argon) in order to eliminate any possible effect of oxygen. The results obtained were identical.
The temperature increase rate was 80° C/hour. Thermograms were drawn up under air for both 2-phenyl-indole (i) and for Stabilizer 8 (ii) and enabled the following conclusion to be drawn: […]

[3] = Dynamic thermostability of stabilized resin on a plastograph, Compound C; details: Compounds C and F, 190° C
Description: The dynamic thermostability of resins containing respectively 2-(4'-dodecyloxy-phenyl)-indole and 2-phenyl-indole as stabilizers was compared by using the Compounds numbered hereunder:
No. 609: Compound C with 2-phenyl-indole as Stabilizer
No. 675: Compound C with Stabilizer 8
The tests were performed on a plastograph, working at a temperature of 190° C, turning at a speed of 60 r.p.m. and containing a charge of 30 g of gelled material.
Two curves were drawn namely:
a decomposition curve giving the value of the resistant torque (m kg) in relation to time.
From this curve, two important results were obtained: the minimal resistant torque and the time of decomposition.
a curve giving the self-heating time in relation to temperature.
The self-heating time is defined by the moment when the temperature of the sheet exceeds the temperature of the plastograph (190° C).

[4] = type: physicochemical
Text: The thermostability of Stabilizer 8 and that of 2-phenyl-indole were studied by differential thermoanalysis and by thermogravimetric analysis. […] Diagrams were made out for 2-phenyl-indole (i) and Compound 8 (ii) and enabled the following conclusions to be drawn: […]

[5] = Static thermostability of stabilized resin, simplified method (GARDNER sub-scale), Compound C; details: 210° C
Description: (§2) The stabilizing power of the substances of the invention was studied from two points of view:
(§3) These studies were performed with six different formulae of vinyl resins (hereinafter referred to as Compounds).
(§4) The different compounds were mixed and calendered in a mixer of which the cylinders were heated to 160° C. The rigid sheets so obtained were then heated in an oven to a temperature between 180° C and 215° C, until incipient carbonization.
(§5) A stove with rotating drums, ventilated and equipped with a thermostat was used for this operation. In the trials described hereunder, the behaviour of a sheet containing the stabilizer to be tested was compared to that of a sheet of the same formula but containing 2-phenyl-indole as stabilizer.
(§6) 2. It is also possible to use a simplified method which is more rapid and with which valid results are also obtained: a reference scale is drawn up with sheets of thermally treated polyvinyl chloride, of which the colourations have been definitely determined in GARDNER degrees as above. A GARDNER sub-scale is thus obtained in polyvinyl chloride sheets which can be directly compared to the sheets to be tested without using the comparator.

[6] = Static thermostability of stabilized resin, simplified method (GARDNER sub-scale), Compound E; details: 185° C
Description: as §2, §3, §4, §5, §6

[7] = Sticking of the stabilized material; details: cylinders at 210° C, 3 min mixing / 3 min rest
Description: Compounds Nos. 609 and 675 were placed in a mixer of the type previously used for studying static thermostability with cylinders at a fixed temperature of 210° C.
They were submitted to alternate periods of 3 minutes of mixing and 3 minutes of rest.

[8] = Sublimation of the stabilizers; type: physicochemical; details: 120° C, 15 Torr, 150 min
Text: A sample of the substance to be tested was introduced into a test tube and heated under reduced pressure. The fraction of sublimated substance was recovered on a mobile cold wall.
After a certain period of time, the sublimated substance was weighed and the result expressed as a percentage of the weight of the starting-material.
The results obtained can only be of relative value, enabling a comparison to be made between two products tested under the same conditions.
Operating conditions (chosen at random).
Temperature of heating 120° C
Temperature of the cold wall
Duration of heating 150 minutes

[9] = Static thermostability of stabilized resin, simplified method (GARDNER sub-scale), Compound D; details: 185° C
Description: as §2, §3, §4, §5, §6

[10] = Static thermostability of stabilized resin, GARDNER Scale Comparator, Compound B; details: 210° C
Description: as §2, §3, §4, §5
1. The colouration of the sheets, of which samples were removed from the stove at fixed intervals was compared to a standard scale of colouration, known as the GARDNER Scale, and expressed in terms of the reference figures of the GARDNER Scale.
Comparisons were made with a GARDNER Scale Comparator which contains 18 filters of coloured glass and which offers the possibility of observing by transparency and in a limited field of view both the sheet and the reference filters.
Compound B was used and the sheets obtained presented the following characteristics: […]

For `CCCCCCCCCCCCOc1ccc(-c2cc3ccccc3[nH]2)cc1` [Stabilizer 8, 2-(4'-dodecyloxy-phenyl)-indole], the LD50 [1] was over 5000 mg/kg, the Toxic symptoms (mice) was “none” and the “Start of weight loss” value ([2]; 80° C/hour, under air) was “about 295 °C”. The “Thermostability of the stabilizer compared with 2-phenyl-indole” value ([2]; thermogravimetric analysis and differential thermoanalysis) was “greater thermostability than 2-phenyl-indole”, the “Dynamic thermostability compared with 2-phenyl-indole” value [3] was “slight superiority over 2-phenyl-indole” and the Melting temperature [4] was 203 °C. For the same compound, the Start of decomposition ([4]; 2° C/minute) was 300 °C, the “Colouration of sheet (GARDNER sub-scale)” value ([5]; 0 min) was 1 GARDNER degrees and the “Colouration of sheet (GARDNER sub-scale)” value ([5]; 10 min) was 1.5 GARDNER degrees. For the same compound, the “Colouration of sheet (GARDNER sub-scale)” value ([5]; 20 min) was 2 GARDNER degrees, the “Colouration of sheet (GARDNER sub-scale)” value ([5]; 30 min) was 2.5 GARDNER degrees and the “Colouration of sheet (GARDNER sub-scale)” value ([5]; 40 min) was under 3 GARDNER degrees. For the same compound, the “Colouration of sheet (GARDNER sub-scale)” value ([5]; 50 min) was 3 GARDNER degrees, the “Colouration of sheet (GARDNER sub-scale)” value ([5]; 55 min) was 3 GARDNER degrees and the “Colouration of sheet (GARDNER sub-scale)” value ([5]; 60 min) was 3.5 GARDNER degrees. For the same compound, the “Static thermostability compared with 2-phenyl-indole” value ([5]; after 60 min) was “superior as a stabilizer to 2-phenyl-indole”, the “Colouration of sheet (GARDNER sub-scale)” value ([6]; 0 min) was under 1 GARDNER degrees and the “Colouration of sheet (GARDNER sub-scale)” value ([6]; 10 min) was under 1 GARDNER degrees. The “Colouration of sheet (GARDNER sub-scale)” value ([6]; 20 min) was under 2 GARDNER degrees, the “Colouration of sheet (GARDNER sub-scale)” value ([6]; 30 min) was under 3 GARDNER degrees and the “Sticking of the stabilized material” value [7] was “comparable”. The “Sublimation relative to 2-phenyl-indole” value [8] was “forty times less than that of 2-phenyl-indole”, the “Percentage of sublimated substance” value ([8]; cold wall 13° C) was 0.6% and the “Colouration given to the co-polymer” value [9] was “less yellow-coloured than that containing 2-phenyl-indole”. For the same compound, the “Static thermostability compared with 2-phenyl-indole” value [9] was “superior to 2-phenyl-indole”, the “Colouration of sheet (GARDNER sub-scale)” value ([9]; 0 min) was under 1 GARDNER degrees and the “Colouration of sheet (GARDNER sub-scale)” value ([9]; 10 min) was under 2 GARDNER degrees. The “Colouration of sheet (GARDNER sub-scale)” value ([9]; 20 min) was 2 GARDNER degrees, the “Colouration of sheet (GARDNER sub-scale)” value ([9]; 30 min) was under 3 GARDNER degrees and the “Colouration of sheet (GARDNER Scale)” value ([10]; 0 min) was 1 GARDNER degrees. For the same compound, the “Colouration of sheet (GARDNER Scale)” value ([10]; 3 min) was 1 GARDNER degrees, the “Colouration of sheet (GARDNER Scale)” value ([10]; 6 min) was 2 GARDNER degrees and the “Colouration of sheet (GARDNER Scale)” value ([10]; 9 min) was 3 GARDNER degrees. For the same compound, the “Colouration of sheet (GARDNER Scale)” value ([10]; 12 min) was 3 GARDNER degrees, the “Colouration of sheet (GARDNER Scale)” value ([10]; 15 min) was 5 GARDNER degrees and the “Colouration of sheet (GARDNER Scale)” value ([10]; 18 min) was 7 GARDNER degrees. The “Colouration of sheet (GARDNER Scale)” value ([10]; 21 min) was 11 GARDNER degrees, the “Static thermostability compared with 2-phenyl-indole” value ([10]; 21 min) was “clearly superior to 2-phenyl-indole” and the Thickness of sheet ([10]; after 21 min) was 1.30 mm. The State of sheet ([10]; after 24 min) was “burnt”.
